Values quoted from earlier work as cited in patent US11686722B2, “Compositions and methods to detect molecules in a sample” (Infusense Corp., priority 2016, dated 2023).
Like-named read-outs stand apart in the source and are kept apart here.

Columns and labels:
[1] = neutral pH, reverse-phase HPLC estimation
[2] = neutral pH, shake-flask methodology

Row | SMILES | time until metabolite appears in the urine, typical (following a dose of THC, urine) [h] | time until metabolite appears in the urine, longest (following a dose of THC, urine, can take as long as) [h] | clearance half-life (in vivo) | detectability in urine (urine) | n-octanol/water partition coefficient (KOW) [1] | n-octanol/water partition coefficient (KOW) [2]
1 | CCCCCc1cc(O)c2c(c1)OC(C)(C)C1CCC(C(=O)O)=CC21 (stereo not drawn) [11-nor-9-carboxy-THC, 11-nor-9-carboxy-tetrahydrocannabinol] | ≤ 1 | ≤ 4 | – | – | – | –
2 | CCCCCc1cc(O)c2c(c1)OC(C)(C)[C@@H]1CCC(C)=C[C@@H]21 [THC, Δ^9-tetrahydrocannabinol] | – | – | less than 30 minutes | not detectable in urine | 9,440,000 | 6000
